According to patent publication US20210023089A1, “Compositions Useful for Treating Herpes Simplex Keratitis, and Methods Using Same” (priority 2013, published 2021):

Legend:
HSV-1 [1] = assay: qPCR of viral genome replication in HSV-1 infected HCE cells; type: cell-based, HSV-1 (KOS strain); details: MOI 0.1, inhibitor 10 μM
Method: All cells were cultured at 37° C. and 5% CO2, and supplemented with 100 U/ml penicillin and 100 μg/ml streptomycin. Human corneal epithelial cells immortalized with hTERT (hTCEpi; Bahassi et al., 2008, Oncogene 27:3977-3985) were grown in complete KGM-2 medium. Human corneal epithelial cells immortalized with SV40 large T antigen (HCE; Araski-Sasaki et al., 1995, Invest. Ophthalmol. Visual Sci. 36:614-621), as well as African green monkey kidney fibroblasts (CV-1; Jensen et al., 1964, Proc. Natl. Acad. Sci. USA 52:53-59), were grown in DMEM medium supplemented with 10% FBS. KOS strain (Smith, Proc. Soc. Exp. Biol. Med. Soc. Exp. Biol. Med. 115:814-816) of HSV-1 was used in all infections. All viral stocks were titered on CV-1 monolayers.
Tetracyline-inducible Chk2 knockdown cell line was derived by lentivirally transducing HCE cells with a construct harboring shRNA sequence against the Chk2 transcript. The Chk2 shRNA sequence was acquired from Sigma (NM_007194.2-129951c1) and targets the following region: 5′-[…]-3′ (SEQ ID NO:1). Lentiviral particles were produced in 293T packaging cells (Dull et al., 1998, J. Virol. 72:8463-8471). […]
Total DNA from infected cells and corneas was isolated using the DNeasy Blood & Tissue Kit (QIAGEN, Hilden, Germany). Real time quantitative PCR was performed with SYBR Green (Bio-Rad, Hercules, Calif.). […]

HSV-1 [2] = assay: Western blot of viral proteins in HSV-1 infected hTCEpi cells; type: cell-based, HSV-1 (KOS strain); details: MOI 0.1, 10 μM, 16 hpi
Method: The following strains of HSV-1 were used: KOS, ICPO-null, HFEM, and tsB7. Subconfluent monolayers of cells were grown in six-well plates. Drug treatments were administered 45 minutes prior to infection and continued for the entire duration of each experiment. Unless indicated otherwise, KU-55933 (Batch No. 5, 99.7% purity; Tocris Bioscience, Bristol, UK) was used at 10 μM final concentration, phosphonoacetic acid (PAA) at 400 μg/mL (Sigma-Aldrich, St. Louis, Mo.), and acyclovir at 50 μg/mL (Sigma-Aldrich). KU-55933 was dissolved in dimethyl sulfoxide (DMSO), and the final concentration of DMSO in both KU-55933 and mock treatment in the in vitro and the ex vivo experiments was 0.1%.
Standard protocol was followed for Western blot analysis. Cell lysates were collected in 200 μL Laemmli buffer, vortexed, and boiled at 95° C. for 5 minutes. Protein concentrations were measured by bicinchoninic acid (BCA) assay. SDS-PAGE was followed by transfer onto a polyvinylidene difluoride (PVDF) membrane, which was then blocked in 5% BSA. […]

HSV-1 [3] = assay: HSV-1 replication (relative genome level) in normal and cancer cell lines; type: cell-based; details: KU-55933 10 μM
Method: All cells were cultured at 37° C. and 5% CO2, and supplemented with 100 U/ml penicillin and 100 μg/ml streptomycin. hTCEpi human corneal epithelial cells were cultured in KGM-2 (Lonza, Basel, Switzerland). HCE human corneal epithelial cells were cultured in DMEM/F-12 supplemented with 10% FBS. EPC2 human esophageal epithelial cells were cultured in KSFM (Carlsbad, Calif.). OKF6 human oral epithelial cells were cultured in KSFM. E5 cells, which are CV-1 cells stably expressing HSV-1 ICP4 protein, were cultured in DMEM supplemented with 10% FBS. HEK293 human embryonic kidney epithelial cells, HeLa human cervical adenocarcinoma cells, U2OS human osteosarcoma cells, H1299 human lung carcinoma cells, and SH-SY5Y human neuroblastoma cells were all obtained from American Type Culture Collection and cultured in DMEM supplemented with 10% FBS.
Total DNA was isolated from infected cells using the DNeasy Blood & Tissue Kit (QIAGEN, Hilden, Germany). Real time quantitative PCR was performed with SYBR Green (Bio-Rad, Hercules, Calif.). Target primers for UL30 (DNA polymerase catalytic subunit) and reference primers for GAPDH were used to measure genome replication. Primer sequences were provided in Alekseev et al., 2014, Invest. Ophthalm. Vis. Sci. 55:706-715). Real time PCR data were processed using the ΔΔC(t) method. […]

| SMILES | viral genome replication (qPCR) (HSV-1 [1]) | levels of viral proteins (Western blot) (HSV-1 [2]) | HSV-1 replication in transformed or cancer cell lines (HSV-1 [3]; HeLa, U2OS, H1299, SH-SY5Y) | HSV-1 replication in normal cell types (HSV-1 [3]; hTCEpi, HCE, OKF6, EPC2) |
| --- | --- | --- | --- | --- |
| NC(=O)c1ccc2[nH]c(-c3ccc(Oc4ccc(Cl)cc4)cc3)nc2c1 [Chk2 inhibitor II, 2-(4-(4-chlorophenoxy)phenyl)-1H-benzimidazole-5-carboxamide] | profoundly reduced | – | – | – |
| O=c1cc(-c2cccc3c2Sc2ccccc2S3)oc(N2CCOCC2)c1 [KU-55933, 2-(morpholin-4-yl)-6-(thianthren-1-yl)-pyran-4-one] | – | pronounced decrease | little effect | potently suppressed |
